In US7645738B2, “18-membered nitrobenzyl- and aminobenzyl-substituted cyclohexadepsipeptides for controlling endoparasites and a process for their preparation” (Bayer Animal Health GmbH, priority 2003, dated 2010):

Legend:
Haemonchus contortus = test: In vivo nematode test Haemonchus contortus/sheep; conditions: sheep experimentally infected with Haemonchus contortus; applied orally and/or intravenously as pure active compound; complete cessation of egg excretion after treatment
Description: Haemonchus contortus/sheep
Sheep which had been experimentally infected with Haemonchus contortus were treated after the prepotency time of the parasite had elapsed. The active compounds were applied orally and/or intravenously as pure active compound.
(§1) The degree of effectiveness is determined by quantitatively counting the worm eggs which have been excreted with the faeces before and after the treatment.
(§2) A complete cessation of egg excretion after the treatment means that the worms have been aborted or damaged to such an extent that they no longer produce eggs (dosis effectiva).
(§3) Active compounds tested and effective dosage rates (dosis effectiva) can be seen from the table which follows.

[1] = tested on: Trichostrongylus colubriformis; test: In vivo nematode test Trichostrongylus colubriformis/sheep; conditions: sheep experimentally infected with Trichostrongylus colubriformis; applied orally and/or intravenously as pure active compound; complete cessation of egg excretion after treatment
Description: Trichostrongylus colubriformis/sheep
Sheep which had been experimentally infected with Trichostrongylus colubriformis were treated after the prepotency time of the parasite had elapsed. The active compounds were applied orally and/or intravenously as pure active compound.
as §1, §2, §3

log P value from HPLC = assay type: physicochemical; conditions: 0.1% phosphoric acid/acetonitrile gradient
Description: HPLC (0.1% phosphoric acid/acetonitrile; gradient: 90/10 (1) 5%/min, 5/95 (6); flow rate: 1.5 mil/min; UV: 210 nm): Rt=12.57 min; log P value 3.58.

Row | Structure (SMILES) | Effective dosage (dosis effectiva) (Haemonchus contortus) [mg/kg] | Effective dosage (dosis effectiva) [1] [mg/kg] | chromatographic logP (log P value from HPLC) | melting point [°C]
1 | CCC(C)[C@H]1C(=O)O[C@H](Cc2ccc(N3CCOCC3)cc2)C(=O)N(C)[C@@H](C(C)CC)C(=O)O[C@H](C)C(=O)N(C)[C@@H](C)C(=O)O[C@H](C)C(=O)N1C (stereo partly drawn) [Example I-1, Cyclo(-N-methyl-L-alanyl-D-lactyl-N-methyl-L-isoleucyl-D-4-morpholino-phenyllactyl-N-methyl-L-isoleucyl-D-lactyl-)] | 0.10 | 0.25 | 3.58 | –
2 | CCC(C)[C@H]1C(=O)O[C@H](Cc2ccc([N+](=O)[O-])cc2)C(=O)N(C)[C@@H](C(C)CC)C(=O)O[C@H](C)C(=O)N(C)[C@@H](C)C(=O)O[C@H](C)C(=O)N1C (stereo partly drawn) [Example III-1, Cyclo(-N-methyl-L-alanyl-D-lactyl-N-methyl-L-isoleucyl-D-4-nitro-phenyllactyl-N-methyl-L-isoleucyl-D-lactyl-)] | – | – | – | 122 to 126
3 | CCC(C)[C@H]1C(=O)O[C@H](Cc2ccc(NCCS(=O)(=O)CCO)cc2)C(=O)N(C)[C@@H](C(C)CC)C(=O)O[C@H](C)C(=O)N(C)[C@@H](C)C(=O)O[C@H](C)C(=O)N1C (stereo partly drawn) [Example I-2, Cyclo(-N-methyl-L-alanyl-D-lactyl-N-methyl-L-isoleucyl-D-4-(2-hydroxyethyl-sulphonyl-ethylamino-phenyl)lactyl-N-methyl-L-isoleucyl-D-lactyl-)] | 0.10 | – | – | –
4 | CCC(C)C1C(=O)OC(Cc2ccccc2N)C(=O)N(C)C(C(C)CC)C(=O)OC(C)C(=O)N(C)C(C)C(=O)OC(C)C(=O)N1C [Example IV-1, Cyclo(-N-methyl-L-alanyl-D-lactyl-N-methyl-L-isoleucyl-D-2-amino-phenyllactyl-N-methyl-L-isoleucyl-D-lactyl-)] | 0.05 | – | – | –
5 | CC[C@H](C)[C@H]1C(=O)O[C@H](Cc2cccc(N)c2)C(=O)N(C)[C@@H]([C@@H](C)CC)C(=O)O[C@H](C)C(=O)N(C)[C@@H](C)C(=O)O[C@H](C)C(=O)N1C [Example IV-2, Cyclo(-N-methyl-L-alanyl-D-lactyl-N-methyl-L-isoleucyl-D-3-amino-phenyllactyl-N-methyl-L-isoleucyl-D-lactyl-)] | 0.05 | 0.25 | – | –
6 | CCC(C)[C@H]1C(=O)O[C@H](Cc2ccccc2)C(=O)N(C)[C@@H](C(C)CC)C(=O)O[C@H](C)C(=O)N(C)[C@@H](C)C(=O)O[C@H](C)C(=O)N1C (stereo partly drawn) [Example II-1, Cyclo(-N-methyl-L-alanyl-D-lactyl-N-methyl-L-isoleucyl-D-phenyllactyl-N-methyl-L-isoleucyl-D-lactyl-)] | – | – | 4.23 | –
